Experimental data reported in patent publication US20090084166A1, “Sensors comprising a chelated metal ion linker layer” (priority 2007, published 2009).

Columns and labels:
[1] = molecular target: carbonic anhydrase II (CAII) (Homo sapiens, UniProt P00918); assay: SPR biomolecular interaction assay of CBS with immobilized CAII; format: binding; details: CBS 40 μM to 80 nM in phosphate-buffered saline, run over CAII surface
Text: During use, light source 142 directs a light beam 150 toward prism 120 by way of suitable optics. Light beam 150 passes into and through light-transmissive support 105 and reflects off metal layer 107. Reflected light 152 is received by optical detector 144. Optical detector 144 passes a corresponding signal to the detection circuitry 146. The ligand 102 is contacted with sample and may bind to analytes in the sample. Binding of analyte and ligand 102 causes a change in a property of the reflected light 152 that can be detected by optical detection system 130. Upon detection of the change in a property of the reflected light 152, the detection system may produce a sample-responsive signal. The resultant sample responsive signal may then be employed to assess the presence of analyte in the sample. In certain embodiments, the sample-responsive signal is in the form of a “sensorgram.” A sensorgram is a plot of response (measured in “resonance units” or “RU”) as a function of time. An increase of RU corresponds to an increase of mass on the sensor surface. […]
The ligand, (CAII) is immobilized on the surface layer as stated above in “ligand attachment”. […] Binding curves are produced of the analyte interaction with the enzyme and binding rates are calculated.

[2] = Non-specific binding test of CAII on the sensor surface without EDC/NHS activation; details: CAII flowed over surface 101 without prior activation with EDC/NHS
Text: Present on the activated dielectric surface 110 is a chelated metal ion linking layer 104. […] (RU stands for resonance unit and is directly proportional to the concentration of biomolecules on a surface. 1 RU is ca. 1 pg/mm^2.)
To test for non-specific binding, a ligand (CAII) was flowed over surface 101 through chamber 136 in the same manner as above but without any prior activation with EDC/NHS.

Row | non-specific binding [2] | Substance | Response units (binding to immobilized CAII) [1]
1 |  | carboxybenzenesulfonamide [CBS] | proportional to the concentration of the analyte and are cleanly seen above the baseline
2 | ca. 10 RU | carbonic anhydrase II [CAII] | 
